From patent US12168781B2, “Production method for T cells or NK cells, medium for culturing T cells or NK cells, method for culturing T cells or NK cells, method for maintaining undifferentiated state of undifferentiated T cells, and growth-accelerating agent for T cells or NK cells” (KIRIN HOLDINGS KABUSHIKI KAISHA, priority 2018, dated 2024)

Tested on: CD8beta(+)CD8alpha(+) T cells
Assay: Long-term culturing of T cells obtained by feeder-free differentiation induction, trypan blue count
Type: cell-based, human
Conditions: 1 μM, FIG. 14(B)
Method: The possibility of long-term culturing of T-iPS-T cells using berbamine was evaluated. First, T cells were induced from T-iPS cells without using a feeder. For the maintenance of iPS cells, StemFit AK02N medium (Ajinomo) was used for feeder-free iPS cells. The iPS cells were detached from the culture surface coated with iMatrix-511 using a dissociation agent [1× TrypLE Select (Thermo Fisher Scientific) was diluted to 1/2 with PBS, and a 0.5 mol/L EDTA solution (pH 8, Nacalai Tesque) was added thereto to give a final concentration of 0.5× TrypLE Select and 0.75 mM EDTA], and subcultured in a culture medium obtained by adding 10 μM Y-27632 to StemFit AK02N (37° C., 5% CO2). On the following day, the culture medium was replaced with Stemfit AK02N. This operation was repeated once a week to maintain the iPS cells.
Hematopoietic progenitor cells (HPCs) were produced by inducing the differentiation of iPS cells by an embryoid body formation method. The feeder-free iPS cells were detached with 0.5× TrypLE Select, and 0.75 mM EDTA, and then seeded at 2 to 3×10^5 cells/well in a 6-well plate (CORNING) subjected to an ultra-low adhesion treatment. By using Stemfit AK02N medium supplemented with 10 μM Y-27632 (Nacalai Tesque) and 10 μM CHIR99021 (Tocris Bioscience), the cells were cultured under low oxygen conditions (5% 02) (Day 0). […]

## COc1cc2c3cc1Oc1c(OC)c(OC)cc4c1[C@@H](Cc1ccc(O)c(c1)Oc1ccc(cc1)C[C@@H]3N(C)CC2)N(C)CC4 [berbamine]
Restimulated on day 14, 28, 42, MilliQ water control could not be cultured after day 42
  period for which the cells could be cultured: 56 days
Vs MilliQ water
  proliferation of the cells in long-term culturing: enhancement of the proliferation of T-iPS-T cells
